Data as given in patent publication US10098870B2 (JENKEM TECHNOLOGY CO., LTD. (BEIJING), priority 2013, dated 2018).
“And” between values parts separate entries of the source, which are not always exact repeats. Equal values may be shown once. “Also recorded” adds a separate entry of the source. Read-outs that look alike come from different tables or passages of the source.

What was measured:
[1] = tested on: H460 human non-small cell lung cancer cells; settings: mean ± SE
Experimental: (§1) The tumor cells were passaged with digestion by trypsin-EDTA twice a week. The cells in the exponential growth phase were collected, counted, and used for inoculation.
5.0×10^6 of H460 tumor cells were suspended in 0.1 ml of PBS, inoculated to each nude mouse at the right shoulder, and there were totally 34 mice inoculated. 8 days later the mean tumor volume was desired to reach about 143 mm^3, the mice with a smaller or larger tumor were removed and the remaining 24 mice were divided into groups randomly according to tumor volume and administrated.

[2] = tested on: A549 human non-small cell lung cancer cells; experiment: Anti-tumor effect on xenograft tumor model of A549 in nude mice (Example 10); settings: for T/C (%) RTV / T/C (%) TW: vs physiological saline; for RTV / Tumor weight: 52nd day, Mean ± SEM; for Tumor volume: mean ± SE;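 on all read-outs here: nude mice bearing A549 xenografts established by inoculating 1.0×10^7 cells in PBS at the right shoulder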
Experimental: A549 cells were cultured with a monolayer in vitro in RPMI1640 medium supplied with heat-inactivated fetal bovine serum with a volume ratio of 10%, and an incubator at 37° C. with the air containing CO2 with a proportion of 5%. The tumor cells were passaged with digestion by trypsin-EDTA twice a week. The cells in the exponential growth phase were collected, counted, and used for inoculation.
1.0×10^7 of A549 tumor cells were suspended in 0.1 ml of PBS, inoculated to each nude mouse at the right shoulder, and there were totally 36 mice inoculated.

[3] = Body weight, survival and tolerance of mice bearing Hep3B (Example 7); assay type: in vivo, mouse; settings: mean ± SE
[4] = tested on: human hepatoma cell Hep3B; experiment: Anti-tumor effect on xenograft tumor model of Hep3B in immune deficiency mice (Example 7); settings: for T/C (%) RTV / T/C (%) TW: vs physiological saline; for RTV / Tumor weight: 44th day, Mean ± SEM; for Tumor volume: mean ± SE
Text: as §1

[5] = day 16 after inoculation, 30 mg/kg i.v. BIW×4W
[6] = day 16 after inoculation, 45 mg/kg i.v. QW×4W
[7] = day 20 after inoculation, 30 mg/kg i.v. BIW×4W
[8] = day 20 after inoculation, 45 mg/kg i.v. QW×4W
[9] = day 23 after inoculation, 30 mg/kg i.v. BIW×4W
[10] = day 23 after inoculation, 45 mg/kg i.v. QW×4W
[11] = day 27 after inoculation, 30 mg/kg i.v. BIW×4W
[12] = day 27 after inoculation, 45 mg/kg i.v. QW×4W
[13] = day 30 after inoculation, 30 mg/kg i.v. BIW×4W
[14] = day 30 after inoculation, 45 mg/kg i.v. QW×4W
[15] = day 34 after inoculation, 30 mg/kg i.v. BIW×4W
[16] = day 34 after inoculation, 45 mg/kg i.v. QW×4W
[17] = day 37 after inoculation, 30 mg/kg i.v. BIW×4W
[18] = day 37 after inoculation, 45 mg/kg i.v. QW×4W
[19] = day 41 after inoculation, 30 mg/kg i.v. BIW×4W
[20] = day 41 after inoculation, 45 mg/kg i.v. QW×4W

monomethoxy polyethylene glycol (20K)-glutamic acid dipeptide-rapamycin conjugate [LPR-2]
Tumor volume ([1]; day 26 after inoculation, 30 mg/kg i.v. BIW×3W): 459 ± 70 mm^3 | Tumor volume ([1]; day 26 after inoculation, 45 mg/kg i.v. QW×3W): 468 ± 57 mm^3 | Tumor volume ([1]; day 29 after inoculation, 30 mg/kg i.v. BIW×3W, 30 mg/kg): 505 mm^3 and 505 ± 87 mm^3 | Tumor volume ([1]; day 29 after inoculation, 45 mg/kg i.v. QW×3W, 45 mg/kg): 549 mm^3 and 549 ± 76 mm^3 | TGD (to 1,000 mm^3) ([2]; 30 mg/kg i.v. BIW×4W): >7 | T/C (%) RTV ([2]; 30 mg/kg i.v. BIW×4W): 10% | T/C (%) TW ([2]; 30 mg/kg i.v. BIW×4W): 8% | TGD (to 1,000 mm^3) ([2]; 45 mg/kg i.v. QW×4W): >7 | T/C (%) RTV ([2]; 45 mg/kg i.v. QW×4W): 11% | T/C (%) TW ([2]; 45 mg/kg i.v. QW×4W): 10% | RTV ([2]; 30 mg/kg i.v. BIW×4W): 0.94 ± 0.11 | Tumor weight ([2]; 30 mg/kg i.v. BIW×4W): 102 ± 15 mg | RTV ([2]; 45 mg/kg i.v. QW×4W): 1.05 ± 0.11 | Tumor weight ([2]; 45 mg/kg i.v. QW×4W): 129 ± 20 mg | Tumor volume ([2]; day 24 after inoculation, 30 mg/kg i.v. BIW×4W): 140 ± 11 mm^3 | Tumor volume ([2]; day 24 after inoculation, 45 mg/kg i.v. QW×4W): 139 ± 11 mm^3 | Tumor volume ([2]; day 28 after inoculation, 30 mg/kg i.v. BIW×4W): 131 ± 8 mm^3 | Tumor volume ([2]; day 28 after inoculation, 45 mg/kg i.v. QW×4W): 115 ± 8 mm^3 | Tumor volume ([2]; day 31 after inoculation, 30 mg/kg i.v. BIW×4W): 134 ± 11 mm^3 | Tumor volume ([2]; day 31 after inoculation, 45 mg/kg i.v. QW×4W): 126 ± 10 mm^3 | Tumor volume ([2]; day 35 after inoculation, 30 mg/kg i.v. BIW×4W): 124 ± 15 mm^3 | Tumor volume ([2]; day 35 after inoculation, 45 mg/kg i.v. QW×4W): 122 ± 13 mm^3 | Tumor volume ([2]; day 38 after inoculation, 30 mg/kg i.v. BIW×4W): 131 ± 13 mm^3 | Tumor volume ([2]; day 38 after inoculation, 45 mg/kg i.v. QW×4W): 120 ± 13 mm^3 | Tumor volume ([2]; day 42 after inoculation, 30 mg/kg i.v. BIW×4W): 122 ± 8 mm^3 | Tumor volume ([2]; day 42 after inoculation, 45 mg/kg i.v. QW×4W): 124 ± 9 mm^3 | Tumor volume ([2]; day 45 after inoculation, 30 mg/kg i.v. BIW×4W): 131 ± 9 mm^3 | Tumor volume ([2]; day 45 after inoculation, 45 mg/kg i.v. QW×4W): 140 ± 11 mm^3 | Tumor volume ([2]; day 49 after inoculation, 30 mg/kg i.v. BIW×4W): 128 ± 9 mm^3 | Tumor volume ([2]; day 49 after inoculation, 45 mg/kg i.v. QW×4W): 138 ± 14 mm^3 | Tumor volume ([2]; day 52 after inoculation, 30 mg/kg i.v. BIW×4W, 30 mg/kg): 127 mm^3 and 127 ± 6 mm^3 | Tumor volume ([2]; day 52 after inoculation, 45 mg/kg i.v. QW×4W, 45 mg/kg): 145 mm^3 and 145 ± 14 mm^3 | Body weight of animal [3, 5]: 20.2 ± 0.6 g | Body weight of animal [3, 6]: 19.2 ± 0.5 g | Body weight of animal [3, 7]: 19.7 ± 0.4 g | Body weight of animal [3, 8]: 18.6 ± 0.4 g | Body weight of animal [3, 9]: 20.4 ± 0.5 g | Body weight of animal [3, 10]: 18.6 ± 0.4 g | Body weight of animal [3, 11]: 19.7 ± 0.5 g | Body weight of animal [3, 12]: 17.9 ± 0.4 g | Body weight of animal [3, 13]: 19.1 ± 0.5 g | Body weight of animal [3, 14]: 18.2 ± 0.4 g | Body weight of animal [3, 15]: 19.1 ± 0.6 g | Body weight of animal [3, 16]: 18.2 ± 0.4 g | Body weight of animal [3, 17]: 18.6 ± 0.4 g | Body weight of animal [3, 18]: 18.0 ± 0.3 g | Body weight of animal [3, 19]: 17.9 ± 0.3 g | Body weight of animal [3, 20]: 16.7 ± 0.5 g | Body weight of animal ([3]; day 44 after inoculation, 30 mg/kg i.v. BIW×4W): 17.3 ± 0.3 g | Body weight of animal ([3]; day 44 after inoculation, 45 mg/kg i.v. QW×4W): 17.1 ± 0.4 g | TGD (to 1,000 mm^3) ([4]; 30 mg/kg i.v. BIW×4W): 17 | T/C (%) RTV ([4]; 30 mg/kg i.v. BIW×4W): 54% | T/C (%) TW ([4]; 30 mg/kg i.v. BIW×4W): 46% | TGD (to 1,000 mm^3) ([4]; 45 mg/kg i.v. QW×4W): >17 | T/C (%) RTV ([4]; 45 mg/kg i.v. QW×4W): 42% | T/C (%) TW ([4]; 45 mg/kg i.v. QW×4W): 40% | anti-tumor effect (in words) ([4]; 5-FU 15 mg/kg, LPR-2 30 and 45 mg/kg): slightly better than that of the 5-FU; also recorded: a common anti-tumor effect | RTV ([4]; 30 mg/kg i.v. BIW×4W): 2.43 ± 0.19 | Tumor weight ([4]; 30 mg/kg i.v. BIW×4W): 720 ± 94 mg | RTV ([4]; 45 mg/kg i.v. QW×4W): 1.85 ± 0.17 | Tumor weight ([4]; 45 mg/kg i.v. QW×4W): 625 ± 84 mg | Tumor volume [4, 5]: 454 ± 60 mm^3 | Tumor volume [4, 6]: 453 ± 56 mm^3 | Tumor volume [4, 7]: 524 ± 47 mm^3 | Tumor volume [4, 8]: 490 ± 73 mm^3 | Tumor volume [4, 9]: 622 ± 37 mm^3 | Tumor volume [4, 10]: 549 ± 83 mm^3 | Tumor volume [4, 11]: 643 ± 45 mm^3 | Tumor volume [4, 12]: 589 ± 91 mm^3 | Tumor volume [4, 13]: 689 ± 57 mm^3 | Tumor volume [4, 14]: 584 ± 87 mm^3 | Tumor volume [4, 15]: 761 ± 82 mm^3 | Tumor volume [4, 16]: 608 ± 89 mm^3 | Tumor volume [4, 17]: 899 ± 97 mm^3 | Tumor volume [4, 18]: 699 ± 102 mm^3 | Tumor volume [4, 19]: 995 ± 126 mm^3 | Tumor volume [4, 20]: 733 ± 93 mm^3
